Data on one molecule can be found in patent US20220073557A1, “FLUORINATED BILE ACIDS” (NZP UK LIMITED, priority 2018, published 2022).

Holding throughout (assay type): cell-based, human
Assay [1] concerns sporadic PD patient fibroblast lines. Description: Seahorse assay (oxygen consumption, extracellular acidification rate) in sPD fibroblasts. Particulars: Homo sapiens, Fibroblast; concentration at which compounds were dosed in the seahorse assay; read-out: EC90 concentration. On the procedure: Fibroblasts are plated into Seahorse 24 well plates with 50,000 cells per well. Cells are left to attach for 2 days. Media is changed to Seahorse DMEM media with glucose and sodium pyruvate and left to equilibrate at 37 degrees normal air CO2 for 1 hour. The plate is entered into the Seahorse machine and run on a program of mix (2 minutes), wait (3 minutes) and measure (3 minutes). After three measurements of basal respiration and ECAR; 0.5 μM oligomycin is injected after which another three measurements are taken; then 0.5 μM of FCCP is injected and three measurements taken and finally 1 μM rotenone is injected and three measurements taken. After all measurements are complete, cells are stained with 10 μM Hoescht and imaged using the InCell to count the number of cells per well for normalisation. This classical ritochondrial stress test experimental protocol allows us to calculate the basal mitochondrial respiration, ATP linked respiration (the amount which is coupled to ATP generation), the maximal and spare respiratory capacity, the non-mitochondrial respiration rate and the extracellular acidification rate which is a proxy measure of glycosolysis.

Assay [2] relates to dopaminergic neurons derived from sPD patients (iNeurons). Description: Mitochondrial function and neuronal morphology measurements in iNeurons from sPD patients. Particulars: iNeurons from sPD patients; for EC50: Homo sapiens, Neuron. On the procedure: Fibroblasts were cultured in DMEM (Invitrogen) and routinely subcultured every 3-5 days using trypsin to dissociate them.
(§1) Briefly, iNPCs are plated in a 6-well plate and cultured for 2 days in DMEM/F-12 medium with Glutamax™ supplemented with 1% NEAA, 2% B27 (Gibco) and 2.5 μM of DAPT. On day 3, DAPT is removed and the medium is supplemented with 1 μM smoothened agonist (SAG) and FGF8 (75 ng/ml) for additional 10 days. Neurons are replated at this stage. Subsequently SAG and FGF8 are withdrawn and replaced with BDNF (30 ng/ml), GDNF (30 ng/ml), TGF-b3 […] and dcAMP (2 mM, Sigma) for 15 days.
Cells are plated in 96 well plates; for live imaging cells are incubated for one hour at 37 degree with 80 nM tetramethlyrhodamine (TMRM), 1 μM LysoTracker® Green (Invitrogen) and Hoechst Stain solution (Sigma) at 1 μM before imaging using Opera Phenix™. Cellular ATP measurements are undertaken using ATPlite kit (Perkin Elmer) as per manufacturer's instructions. Mitochondrial reactive oxygen species generation was assessed using mitochondrial NpFR2 (probe; a kind gift from Dr Liz New, University of Sydney, Australia) at 20 μM and Hoechst stain solution at 1 μM for 30 mins at 37° C., then the dyes are removed and cells images using Opera Phenix™. Images generated from the live imaging experiments were analysed using Harmony® (Perkin Elmer software). We developed protocols in order to segment nucleus, cell boundary and processes, mitochondria, lysosomes, autophagosomes. We only analysed the z projection images collected from the z stacks.

For assay [3] the test system is unchanged. The assay can be described thus: Activated caspase 3 immunofluorescence staining in iNeurons. Particulars: untreated sPD 162. As to the method:
as §1
Cells are plated into 96 well plates and fixed using 4% paraformaldehyde for 30 minutes. After PBS washes cells are permeabilised using 0.1% Triton™ X-100 for 10 minutes and blocked using 5% goat serum for 1 hour. Cells are incubated with primary antibodies tyrosine hydroxylase (St John's Laboratory); DAT (Abcam); Tuj (Millipore); Tom20 (BD Biosciences); activated caspase 3 (Cell Signaling); alpha synuclein (Cell Signaling); phosphorylated alpha synuclein (Millipore) at 4° C. for 16 hours. Cells are washed using PBS-Tween® and incubated with Alexa Fluor™-conjugated secondary antibodies 488 and 568 (Invitrogen) and Hoescht (Sigma) 1 μM prior to imaging. Imaging was performed using the Opera Phenix™ high content imaging system (Perkin Elmer).

Assay [4] has the same test system. Description: Dopamine ELISA in iNeurons. Particulars: untreated sPD 0. As to the method:
as §1
Dopamine ELISA is performed using Dopamine research ELISA kit (Labor Diagnostika Nord GmbH&Co. KG) as per manufacturers instructions. Dopamine release is obtained incubating the cells at 37° C. using three different conditions at the same time per line. Medium is removed in all wells then the first well is incubated with HBSS with Ca^2+ and Mg^2+ (Gibco by Life Technologies) for 30 minutes, the second well is incubated in HBSS with Ca^2+ and Mg^2+ for 15 minutes and then 56 mM KCl (Fisher chemical) is added for another 15 minutes and the third well is incubated with HBSS without Ca^2+ and Mg^2+ (Gibco by Life Technologies) but with 2 mM EDTA for 15 min and then 56 mM KCl is added for another 15 minutes. Straight away media is collected in an eppendorf and cells are harvested using Accutase®, centrifuge at 400 g for 4 min and resuspended in 10 μl of PBS. […]
(An ELISA detects its analyte on a solid surface through an enzyme-linked reagent.)

In assay [5] the test system is sAD and familial AD (PSEN1 mutants) patient fibroblasts. The assay can be described thus: Total cellular ATP levels in Alzheimer's disease patient fibroblasts. The note with it: 24 hour treatment at 100 nM, 21% restores to control levels.
Experimental: Briefly, fibroblasts were cultured as and plated into white 384 well plates with 5000 cells per well in 50 μl of media volume. The plates are left overnight in an incubator to allow the fibroblasts to adhere to the plate surface. The following morning the Glucose based medium is replaced with 25 μl of Galactose based medium. The compounds are added to the plates using a ECHO 550 liquid handling system. The wells were dosed to provide an 8-point concentration range of 0.06 nM-300 nM of compound. After dosing the wells are topped up with a further 25 μl of Galactose based medium and then left in an incubator for 24 hours. Following this incubation the medium is removed from the plate and the wells are washed twice with sterile PBS. The wells are filled with 25 μl of Sterile PBS followed by 12.5 μl of Lysis solution from the ATPlite™ Luminescence ATP detection assay system (Perkin Elmer), including 16 cell free wells to use as blank controls. The plate is then placed on a rotary shaker for 5 mins at 700 rpm. Following the shaking 12.5 μl of ATP substrate solution (Perkin Elmer) is added to each well and a further 5 min of shaking. The plate is then placed in darkness for 10 minutes prior to reading. Using a PHERAStar® plate reader, luminescence intensity is recorded. Following the ATP assay the plates are immediately assayed for DNA content in a CyQUANT® assay.
Immediately following The ATP assay DNA content is assessed with the CyQUANT® NF Cell Proliferation Assay Kit (ThermoFisher). CyQUANT® buffer is prepared immediately before the assay and is comprised of 1 ul CyQUANT® dye per ml×1 HBSS solution. 12.5 ul of CyQUANT® buffer is added to each well. Plate left in incubator for 1 hour then read on a PHERAStar® Plate reader with excitation at 497 nm and emission at 520 nm.
Data shown in the Table 6 below is the mean increase in ATP levels after 24 hour treatment with compounds at 100 nM concentration.

Where two headings read alike, the source gives them in different places.

As for `C[C@H](CCC(=O)O)[C@H]1CC[C@H]2[C@@H]3[C@@H](O)C[C@@H]4C[C@H](O)CC[C@]4(C)[C@H]3CC[C@]12C` [UDCA, ursodeoxycholic acid, reference compound], the EC90 in assay [1] came out at 100 nM. Moreover, the results for the EC50 in assay [2] (read-out: ATP EC50) and in assay [2] (read-out: MMP EC50) were 5 nM and 7.3 nM, respectively. In assay [2] (untreated sPD 48), the “Neuronal morphology (elongation; % controls)” value is 64 % controls. Also, in assay [2] (untreated sPD 50), the “ATP normalisation (% of controls)” value is reported as 82 % of controls. The “MMP normalisation (% of controls)” value in assay [2] (untreated sPD 52) is 73 % of controls. The “ROS (Normalisation) (% controls)” value in assay [2] (untreated sPD 115) came to 110 % controls. Moreover, in assay [3], the “Activated caspase 3 levels” value is reported as 143 % of level in iNeurons from Controls. In assay [4], the “Dopamine level (increase in dopamine release)” value is “No effect”. Moreover, the “% increase over vehicle treated (mean increase in ATP levels)” value in assay [5] was 12%.
